From US7960377B2 (priority 2008, dated 2011) come the findings set out here.

Structures are written as SMILES. Read-outs that look alike come from different tables or passages of the source. Marks after values point to notes of the source that are not given here.

Holding throughout (assay): cell-based
One assay has as its target human CB2 receptor (Homo sapiens, UniProt P34972). The class given is cell-based. To be noted: for inverse agonist mark, human CB2 receptor: asterisk at the compound number.
For another assay, the target named is T1, rat CB2 receptor (Rattus norvegicus, UniProt Q9QZN9).
T1 sequence (Q9QZN9 1-360): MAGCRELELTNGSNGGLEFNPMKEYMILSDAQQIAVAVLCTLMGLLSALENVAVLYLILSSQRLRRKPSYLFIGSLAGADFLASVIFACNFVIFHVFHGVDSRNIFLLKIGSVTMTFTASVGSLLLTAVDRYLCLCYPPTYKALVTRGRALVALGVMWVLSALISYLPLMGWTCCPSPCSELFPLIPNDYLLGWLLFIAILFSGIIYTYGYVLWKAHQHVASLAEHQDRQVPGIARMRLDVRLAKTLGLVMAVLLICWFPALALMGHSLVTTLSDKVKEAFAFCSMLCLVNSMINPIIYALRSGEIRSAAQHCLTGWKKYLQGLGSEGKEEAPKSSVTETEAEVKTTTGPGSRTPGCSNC
The class given is cell-based. Conditions: for inverse agonist mark, rat CB2 receptor: asterisk at the compound number.

In another assay the target is human CB1 receptor (Homo sapiens, UniProt P21554).
human CB1 receptor, sequence (P21554 whole entry): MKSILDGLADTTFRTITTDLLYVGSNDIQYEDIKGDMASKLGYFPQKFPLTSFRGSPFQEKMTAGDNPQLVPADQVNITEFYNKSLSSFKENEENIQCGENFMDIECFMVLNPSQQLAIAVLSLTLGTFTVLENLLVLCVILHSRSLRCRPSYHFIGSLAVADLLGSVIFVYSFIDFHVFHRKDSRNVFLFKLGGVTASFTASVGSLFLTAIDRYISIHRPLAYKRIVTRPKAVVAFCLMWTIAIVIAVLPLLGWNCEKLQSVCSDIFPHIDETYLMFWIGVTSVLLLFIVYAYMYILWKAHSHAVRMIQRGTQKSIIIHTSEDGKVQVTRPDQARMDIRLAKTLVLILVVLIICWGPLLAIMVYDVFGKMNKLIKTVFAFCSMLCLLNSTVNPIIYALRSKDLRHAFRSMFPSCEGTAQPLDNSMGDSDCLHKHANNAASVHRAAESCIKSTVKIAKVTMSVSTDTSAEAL
Where [1] appears, read: change in intracellular cAMP, CHO-K1 hCB2 cells, class AR, read-out: EC50 values for human CB2 receptor.

human CB2 receptor, sequence (P34972 whole entry): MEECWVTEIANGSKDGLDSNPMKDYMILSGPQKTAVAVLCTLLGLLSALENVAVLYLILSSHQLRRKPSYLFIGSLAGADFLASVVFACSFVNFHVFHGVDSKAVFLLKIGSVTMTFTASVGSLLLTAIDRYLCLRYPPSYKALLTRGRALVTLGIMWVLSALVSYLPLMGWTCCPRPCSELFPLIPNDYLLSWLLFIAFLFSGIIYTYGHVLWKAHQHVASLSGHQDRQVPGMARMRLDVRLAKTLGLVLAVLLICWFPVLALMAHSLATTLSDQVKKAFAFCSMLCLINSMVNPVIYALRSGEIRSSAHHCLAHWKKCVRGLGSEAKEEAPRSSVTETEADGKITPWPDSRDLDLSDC

Turning to `O=C(c1cnc2c(c1)N(S(=O)(=O)c1ccccc1)CCO2)N1CCOCC1` [Example 4, morpholino(1-(phenyl-sulfonyl)-2,3-dihydro-1H-pyrido[2,3-b][1,4]oxazin-7-yl)methanone], the EC50 on human CB2 receptor (setting [1]), at rat CB2 receptor and at human CB1 receptor was more than 30 µM each time.
For `CNC(=O)[C@@H](NC(=O)c1cnc2c(c1)N(S(=O)(=O)c1ccccc1)CCO2)C(C)(C)C` [Example 6, (S)-N-(3,3-dimethyl-1-(methylamino)-1-oxobutan-2-yl)-1-(phenyl-sulfonyl)-2,3-dihydro-1H-pyrido[2,3-b][1,4]oxazine-7-carboxamide], the EC50 is more than 30 µM on human CB2 receptor, not above 0.03 µM at rat CB2 receptor and more than 30 µM at human CB1 receptor. For the same molecule, on rat CB2 receptor, the “inverse agonist mark, rat CB2 receptor” value is 2, 3, 6*, 7, 8, 10, 11, 12, 15*, 20, 21, 22, 23, 24, 25, 26, 27, 33, 39,.
Take `CS(=O)(=O)N1CCN(C(=O)c2cnc3c(c2)N(S(=O)(=O)c2ccc(Cl)c(Cl)c2)CCO3)CC1` [Example 116, (1-(3,4-dichloro-phenylsulfonyl)-2,3-dihydro-1H-pyrido[2,3-b][1,4]oxazin-7-yl)(4-(methylsulfonyl)piperazin-1-yl)methanone]: the EC50 on human CB2 receptor (setting [1]), on rat CB2 receptor and on human CB1 receptor was more than 30 µM each time.
As for `CCC(C)(C)NC(=O)c1cnc2c(c1)N(S(=O)(=O)N1CC(F)(F)C1)CCO2` [Example 194, 1-(3,3-difluoroazetidin-1-ylsulfonyl)-N-tert-pentyl-2,3-dihydro-1H-pyrido[2,3-b][1,4]oxazine-7-carboxamide], the EC50 on human CB2 receptor is more than 30 µM; on rat CB2 receptor, not above 0.03 µM; on human CB1 receptor, more than 30 µM.
Regarding `CC(C)(C)NC(=O)c1cnc2c(c1)N(S(=O)(=O)N1CC(F)(F)C1)CCO2` [Example 193, N-tert-butyl-1-(3,3-difluoroazetidin-1-ylsulfonyl)-2,3-dihydro-1H-pyrido[2,3-b][1,4]oxazine-7-carboxamide], the EC50 at human CB2 receptor was more than 30 µM; on rat CB2 receptor, not above 0.03 µM; on human CB1 receptor, more than 30 µM.
For the molecule `CC(C)(C)NC(=O)c1cnc2c(c1)N(S(=O)(=O)c1ccc(Cl)s1)CCO2` [Example 94, N-tert-butyl-1-(5-chlorothiophen-2-ylsulfonyl)-2,3-dihydro-1H-pyrido[2,3-b][1,4]oxazine-7-carboxamide], the EC50 on human CB2 receptor (setting [1]), on rat CB2 receptor and at human CB1 receptor was more than 30 µM throughout.
As to `CN(C)S(=O)(=O)N1CCN(C(=O)c2cnc3c(c2)N(S(=O)(=O)c2ccc(Cl)c(Cl)c2)CCO3)CC1` [Example 119, 4-(1-(3,4-dichlorophenylsulfonyl)-2,3-dihydro-1H-pyrido [2,3-b][1,4]oxazine-7-carbonyl)-N,N-dimethyl piperazine-1-sulfonamide], the EC50 on human CB2 receptor (setting [1]), at rat CB2 receptor and on human CB1 receptor was more than 30 µM throughout.
In the case of `CNC(=O)[C@@H](NC(=O)c1cnc2c(c1)N(S(=O)(=O)c1ccc(F)cc1)CCO2)C(C)(C)C` [Example 15, (S)-N-(3,3-dimethyl-1-(methylamino)-1-oxobutan-2-yl)-1-(4-fluorophenyl-sulfonyl)-2,3-dihydro-1H-pyrido [2,3-b][1,4]oxazine-7-carboxamide], the “inverse agonist mark, human CB2 receptor” value on human CB2 receptor is 1, 5, 9, 12, 14, 15*, 28, 29, 34, 35, 36, 37, 41, 44, 49, 50, 51, 54, 56,. For the same molecule, on rat CB2 receptor, the EC50 was not above 0.03 µM and the “inverse agonist mark, rat CB2 receptor” value was 2, 3, 6*, 7, 8, 10, 11, 12, 15*, 20, 21, 22, 23, 24, 25, 26, 27, 33, 39,. This molecule returned an EC50 at human CB1 receptor of more than 30 µM.
Take `O=C(c1cnc2c(c1)N(S(=O)(=O)c1ccc(C(F)(F)F)cc1)CCO2)N1CCS(=O)(=O)CC1` [Example 52, 1′,1′-dioxide-thiomorpholino(1-(4-(trifluoromethyl)phenylsulf-onyl)-2,3-dihydro-1H-pyrido[2,3-b][1,4]oxazin-7-yl)methanone]: the EC50 at human CB2 receptor (setting [1]), at rat CB2 receptor and on human CB1 receptor was more than 30 µM each time.
As to `CC(C)(CO)CNC(=O)c1cnc2c(c1)N(S(=O)(=O)N1CCC(Cl)CC1)CCO2` [Example 187, 1-(4-chloropiperidin-1-ylsulfonyl)-N-(3-hydroxy-2,2-dimethylpropyl)-2,3-dihydro-1H-pyrido[2,3-b][1,4]oxazine-7-carboxamide], the figures for the EC50 at human CB2 receptor and on rat CB2 receptor were more than 30 µM and not above 0.03 µM, respectively.
For the molecule `CC(C)(C)CNC(=O)c1cnc2c(c1)N(S(=O)(=O)c1ccc(F)cc1)CCO2` [Example 11], the EC50 at human CB2 receptor and on rat CB2 receptor was not above 0.03 µM each time.
In the case of `CC(C)(CO)NC(=O)c1cnc2c(c1)N(S(=O)(=O)N1CCC(Cl)CC1)CCO2` [Example 186, 1-(4-chloropiperidin-1-ylsulfonyl)-N-(1-hydroxy-2-methylpropan-2-yl)-2,3-dihydro-1H-pyrido[2,3-b][1,4]oxazine-7-carboxamide], the EC50 at human CB2 receptor was more than 30 µM; at rat CB2 receptor, not above 0.03 µM; on human CB1 receptor, more than 30 µM.
`CC(C)(C)NC(=O)c1cnc2c(c1)N(S(=O)(=O)c1ccc(Cl)c(Cl)c1)CCO2` [Example 55, N-tert-butyl-1-(3,4-dichlorophenylsulfonyl)-2,3-dihydro-1H-pyrido[2,3-b][1,4]oxazine-7-carboxamide]: the results for the EC50 at human CB2 receptor, at rat CB2 receptor and on human CB1 receptor were not above 0.03 µM, not above 0.03 µM and more than 30 µM, respectively.
Consider `CN(CC(C)(C)CO)C(=O)c1cnc2c(c1)N(S(=O)(=O)N1CCc3ccccc3C1)CCO2` [Example 192, 1-(3,4-dihydroisoquinolin-2(1H)-ylsulfonyl)-N-(3-hydroxy-2,2-dimethyl-propyl)-N-methyl-2,3-dihydro-1H-pyrido[2,3-b][1,4]oxazine-7-carboxamide], for which the EC50 on human CB2 receptor, at rat CB2 receptor and at human CB1 receptor was more than 30 µM throughout.
Take `CCC(C)(C)NC(=O)c1cnc2c(c1)N(S(=O)(=O)N1CCC(F)CC1)CCO2` [Example 167, 1-(4-fluoropiperidin-1-ylsulfonyl)-N-tert-pentyl-2,3-dihydro-1H-pyrido[2,3-b][1,4]oxazine-7-carboxamide]: the figures for the EC50 on human CB2 receptor, on rat CB2 receptor and on human CB1 receptor were not above 0.03 µM, not above 0.03 µM and more than 30 µM, respectively.
Turning to `CC(C)(C)NC(=O)c1cnc2c(c1)N(S(=O)(=O)c1ccc(F)cc1)CCO2` [Example 7, N-tert-butyl-1-(4-fluoro-phenylsulfonyl)-2,3-dihydro-1H-pyrido[2,3-b][1,4]oxazine-7-carboxamide], the EC50 on human CB2 receptor and on rat CB2 receptor was not above 0.03 µM each time.
For the molecule `CC(C)(C)c1cc(NC(=O)c2cnc3c(c2)N(S(=O)(=O)N2CCC(c4ccccc4)CC2)CCO3)no1` [Example 162, N-(5-tert-butylisoxazol-3-yl)-1-(4-phenylpiperidin-1-ylsulfonyl)-2,3-dihydro-1H-pyrido[2,3-b][1,4]oxazine-7-carboxamide], the “inverse agonist mark, human CB2 receptor” value on human CB2 receptor is given as 128, 129, 130, 132, 133, 140, 141, 142, 143, 147, 148, 149, 162*,. In addition, at rat CB2 receptor, the “inverse agonist mark, rat CB2 receptor” value is 108, 114, 117, 122, 126, 128, 129, 130, 141, 147, 162*, 165*, 179,. At human CB1 receptor, this molecule returned an EC50 of more than 30 µM.
As to `CC(C)(C)NC(=O)c1cnc2c(c1)N(S(=O)(=O)N1CCC(Cl)CC1)CCO2` [Example 184, N-tert-butyl-1-(4-chloropiperidin-1-ylsulfonyl)-2,3-dihydro-1H-pyrido[2,3-b][1,4]oxazine-7-carboxamide], the values for the EC50 at human CB2 receptor and on rat CB2 receptor were more than 30 µM and not above 0.03 µM, respectively.
For `O=C(NC1CCCC1)c1cnc2c(c1)N(S(=O)(=O)c1ccc(Cl)cc1)CCO2` [Example 25, 1-(4-chlorophenyl-sulfonyl)-N-cyclopentyl-2,3-dihydro-1H-pyrido[2,3-b][1,4]oxazine-7-carboxamide] the same measures were not above 0.03 µM and not above 0.03 µM.
With `CC(C)(C)NC(=O)c1cnc2c(c1)N(S(=O)(=O)N1CCC(F)(F)CC1)CCO2` [Example 156, N-tert-butyl-1-(4,4-difluoropiperidin-1-ylsulfonyl)-2,3-dihydro-1H-pyrido[2,3-b][1,4]oxazine-7-carboxamide], the EC50 on human CB2 receptor and at rat CB2 receptor was not above 0.03 µM throughout.
With `CCC(C)(C)NC(=O)c1cnc2c(c1)N(S(=O)(=O)N1CCC(C(F)(F)F)CC1)CCO2` [Example 151, N-tert-pentyl-1-(4-(trifluoromethyl)piperidin-1-ylsulfonyl)-2,3-dihydro-1H-pyrido[2,3-b][1,4]oxazine-7-carboxamide], the EC50 at human CB2 receptor and at rat CB2 receptor was not above 0.03 µM in each case.
Take `CC(C)(C)c1nnc(-c2cnc3c(c2)N(S(=O)(=O)c2ccc(F)cc2)CCO3)o1` [Example 212, 7-(5-tert-butyl-1,3,4-oxadiazol-2-yl)-1-(4-fluorophenylsulfonyl)-2,3-dihydro-1H-pyrido[2,3-b][1,4]oxazine]: the EC50 at human CB2 receptor and on rat CB2 receptor was not above 0.03 µM each time.
For `CC(C)(CO)CNC(=O)c1cnc2c(c1)N(S(=O)(=O)N1CC(F)(F)C1)CCO2` [Example 196, 1-(3,3-difluoroazetidin-1-ylsulfonyl)-N-(3-hydroxy-2,2-dimethylpropyl)-2,3-dihydro-1H-pyrido[2,3-b][1,4]oxazine-7-carboxamide], the EC50 was more than 30 µM on human CB2 receptor and not above 0.03 µM on rat CB2 receptor.
Regarding `O=C(O)CC1COCCN1C(=O)c1cnc2c(c1)N(S(=O)(=O)c1ccc(C(F)(F)F)cc1)CCO2` (stereo not shown) [Example 207], the EC50 at human CB2 receptor (setting [1]) was more than 30 µM; at rat CB2 receptor (change in intracellular cAMP, CHO-K1 rCB2 cells, class AR, read-out: EC50 values for rat CB2 receptor), more than 30 µM.

The EC50 is the concentration that produces a half-maximal response.
